Test results reported in ChEMBL document CHEMBL1201862, “PubChem BioAssay data set” (2004).
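Where inhibition never reached the appropriate level, the endpoint shown equals the highest concentration tested. Otherwise, values were interpolated linearly from a five-concentration, 48-hour dose response in 96-well plates. At the GI50, growth is halved.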 Calls of active or inactive are those of the source. Cut-off read from the data, not from the text of the source: active = GI50 up to about 1.1 µM and inactive = higher.

Legend:
Test in all cases: growth of human tumour cells (NCI), 48 h
OVCAR-8 = test system: OVCAR-8
NCI/ADR-RES = test system: NCI/ADR-RES
SF-295 = test system: SF-295
SF-268 = test system: SF-268
COLO 205 = test system: COLO 205
HCC 2998 = test system: HCC 2998
MCF7 = test system: MCF7
CCRF-CEM = test system: CCRF-CEM
UACC-62 = test system: UACC-62
HT-29 = test system: HT-29
NCI-H522 = test system: NCI-H522
MDA-N = test system: MDA-N
U-251 = test system: U-251
A549 = test system: A549
NCI-H226 = test system: NCI-H226
RPMI-8226 = test system: RPMI-8226
SK-MEL-5 = test system: SK-MEL-5
OVCAR-3 = test system: OVCAR-3
NCI-H23 = test system: NCI-H23
T47D = test system: T47D

Compound	GI50 (OVCAR-8)	GI50 (NCI/ADR-RES)	GI50 (SF-295)	GI50 (SF-268)	GI50 (COLO 205)	GI50 (HCC 2998)	GI50 (MCF7)	GI50 (CCRF-CEM)	GI50 (UACC-62)	GI50 (HT-29)	GI50 (NCI-H522)	GI50 (MDA-N)	GI50 (U-251)	GI50 (A549)	GI50 (NCI-H226)	GI50 (RPMI-8226)	GI50 (SK-MEL-5)	GI50 (OVCAR-3)	GI50 (NCI-H23)	GI50 (T47D)
COC(=O)CNC(=O)CNC(=O)CSc1nnc(COc2ccc(Cl)cc2)n1-c1ccccc1	> 100 µM (inactive)	> 100 µM (inactive)	> 100 µM (inactive)	20.8 µM (inactive)	> 100 µM (inactive)	42 µM (inactive)	> 100 µM (inactive)	25.3 µM (inactive)	17.5 µM (inactive)	> 100 µM (inactive)	5.46 µM (inactive)	23.7 µM (inactive)	49.9 µM (inactive)	> 100 µM (inactive)	> 100 µM (inactive)	29.4 µM (inactive)	22.4 µM (inactive)	19.8 µM (inactive)	> 100 µM (inactive)	–
O=C(O)CNCc1c2ccccc2[n+]([O-])c2ccccc12	80.5 µM (inactive)	–	> 100 µM (inactive)	43.8 µM (inactive)	> 100 µM (inactive)	21.7 µM (inactive)	–	34.3 µM (inactive)	58.1 µM (inactive)	57.1 µM (inactive)	46.1 µM (inactive)	–	> 100 µM (inactive)	> 100 µM (inactive)	> 100 µM (inactive)	30.8 µM (inactive)	48.1 µM (inactive)	> 100 µM (inactive)	69.3 µM (inactive)	–
COc1cc2c3c(c1OCc1ccccc1)NCCC3NCC2 (configuration not stated)	> 100 µM (inactive)	–	> 100 µM (inactive)	> 100 µM (inactive)	> 100 µM (inactive)	> 100 µM (inactive)	–	> 100 µM (inactive)	> 100 µM (inactive)	> 100 µM (inactive)	> 100 µM (inactive)	–	> 100 µM (inactive)	> 100 µM (inactive)	> 100 µM (inactive)	> 100 µM (inactive)	> 100 µM (inactive)	> 100 µM (inactive)	> 100 µM (inactive)	–
CC(C)(C)c1cc(C(=O)/C=C/c2ccc3c(c2)CCO3)cc(C(C)(C)C)c1O	1.63 µM (inactive)	0.614 µM (active)	1.69 µM (inactive)	2.58 µM (inactive)	0.701 µM (active)	1.89 µM (inactive)	1.23 µM (inactive)	1.07 µM (active)	1.16 µM (inactive)	1.04 µM (active)	0.323 µM (active)	–	0.94 µM (active)	1.63 µM (inactive)	2.24 µM (inactive)	0.984 µM (active)	0.908 µM (active)	5.07 µM (inactive)	1.14 µM (inactive)	4.86 µM (inactive)
COc1ccc(CCNC(=O)Cc2ccccc2CCO)cc1OC	> 100 µM (inactive)	> 100 µM (inactive)	> 100 µM (inactive)	> 100 µM (inactive)	> 100 µM (inactive)	> 100 µM (inactive)	> 100 µM (inactive)	> 100 µM (inactive)	> 100 µM (inactive)	> 100 µM (inactive)	> 100 µM (inactive)	–	> 100 µM (inactive)	> 100 µM (inactive)	> 100 µM (inactive)	> 100 µM (inactive)	> 100 µM (inactive)	> 100 µM (inactive)	> 100 µM (inactive)	> 100 µM (inactive)
CCCOC(=O)C1CCC(=O)N1C(=O)C(C)Cl (configuration not stated)	> 100 µM (inactive)	–	> 100 µM (inactive)	> 100 µM (inactive)	> 100 µM (inactive)	> 100 µM (inactive)	–	> 100 µM (inactive)	> 100 µM (inactive)	> 100 µM (inactive)	> 100 µM (inactive)	–	> 100 µM (inactive)	> 100 µM (inactive)	> 100 µM (inactive)	> 100 µM (inactive)	> 100 µM (inactive)	> 100 µM (inactive)	> 100 µM (inactive)	–
Cc1c2ccncc2c(C)c2c1[nH]c1ccc(Oc3ccccc3)cc12	2.03 µM (inactive)	–	4.63 µM (inactive)	3.39 µM (inactive)	2.52 µM (inactive)	1.94 µM (inactive)	–	2.17 µM (inactive)	1.74 µM (inactive)	1.79 µM (inactive)	2.37 µM (inactive)	–	1.67 µM (inactive)	2.25 µM (inactive)	14.3 µM (inactive)	1.88 µM (inactive)	2.97 µM (inactive)	2.46 µM (inactive)	11.6 µM (inactive)	–
O=C(c1cccc2ccccc12)C1(Br)S(=O)(=O)OCCOS1(=O)=O	> 100 µM (inactive)	> 100 µM (inactive)	> 100 µM (inactive)	–	> 100 µM (inactive)	> 100 µM (inactive)	> 100 µM (inactive)	–	–	> 100 µM (inactive)	–	> 100 µM (inactive)	> 100 µM (inactive)	> 100 µM (inactive)	–	> 100 µM (inactive)	> 100 µM (inactive)	> 100 µM (inactive)	> 100 µM (inactive)	–
O=C(c1cc2ccccc2cc1O)N1CCCCC1	20.8 µM (inactive)	23.8 µM (inactive)	25.4 µM (inactive)	36.1 µM (inactive)	32.7 µM (inactive)	21.2 µM (inactive)	26.4 µM (inactive)	14.5 µM (inactive)	31.4 µM (inactive)	25.6 µM (inactive)	–	–	52.4 µM (inactive)	–	17.8 µM (inactive)	17.6 µM (inactive)	20 µM (inactive)	–	–	37.6 µM (inactive)
CN1CCN(C)C12C=CC=CC21CC1	> 100 µM (inactive)	–	> 100 µM (inactive)	> 100 µM (inactive)	> 100 µM (inactive)	> 100 µM (inactive)	–	> 100 µM (inactive)	> 100 µM (inactive)	> 100 µM (inactive)	> 100 µM (inactive)	–	> 100 µM (inactive)	> 100 µM (inactive)	> 100 µM (inactive)	> 100 µM (inactive)	> 100 µM (inactive)	> 100 µM (inactive)	> 100 µM (inactive)	–
Cc1ccc2c(O)cc(-c3cccc(Cl)c3)nc2n1	0.115 µM (active)	0.0411 µM (active)	< 0.0151 µM (active)	0.59 µM (active)	0.0308 µM (active)	0.12 µM (active)	< 0.0217 µM (active)	< 0.0238 µM (active)	< 0.01 µM (active)	< 0.0179 µM (active)	< 0.01 µM (active)	1 µM (active)	0.0308 µM (active)	0.0325 µM (active)	0.0489 µM (active)	< 0.0212 µM (active)	< 0.0177 µM (active)	< 0.01 µM (active)	0.272 µM (active)	–
CCOC(=O)C(CO)c1nc2c([nH]c1=O)c(=O)n(C)c(=O)n2C (configuration not stated)	> 100 µM (inactive)	> 100 µM (inactive)	> 100 µM (inactive)	> 100 µM (inactive)	> 100 µM (inactive)	> 100 µM (inactive)	> 100 µM (inactive)	> 100 µM (inactive)	> 100 µM (inactive)	> 100 µM (inactive)	> 100 µM (inactive)	–	> 100 µM (inactive)	> 100 µM (inactive)	> 100 µM (inactive)	> 100 µM (inactive)	0.579 µM (active)	> 100 µM (inactive)	> 100 µM (inactive)	13.7 µM (inactive)
C[C@]12CC[C@H](O)CC1=CC[C@@H]1C2CC[C@]2(C)C(=O)N(N)C(=O)CC12 (some centres not stated)	> 100 µM (inactive)	–	> 100 µM (inactive)	> 100 µM (inactive)	> 100 µM (inactive)	> 100 µM (inactive)	–	> 100 µM (inactive)	> 100 µM (inactive)	> 100 µM (inactive)	> 100 µM (inactive)	–	> 100 µM (inactive)	> 100 µM (inactive)	> 100 µM (inactive)	> 100 µM (inactive)	> 100 µM (inactive)	> 100 µM (inactive)	> 100 µM (inactive)	–
CC12CCC([C@H](Nc3cc(C(F)(F)F)cc(C(F)(F)F)c3)C1=O)C2(C)C (some centres not stated)	> 100 µM (inactive)	> 100 µM (inactive)	37.4 µM (inactive)	> 100 µM (inactive)	> 100 µM (inactive)	> 100 µM (inactive)	–	–	–	84.3 µM (inactive)	–	–	–	> 100 µM (inactive)	> 100 µM (inactive)	0.158 µM (active)	> 100 µM (inactive)	16.8 µM (inactive)	> 100 µM (inactive)	> 100 µM (inactive)
COc1ccc(OC)c(/C=C2\CCc3ccccc3C2=O)c1	4.16 µM (inactive)	–	3.35 µM (inactive)	4.84 µM (inactive)	3.18 µM (inactive)	2 µM (inactive)	–	2.33 µM (inactive)	1.76 µM (inactive)	0.735 µM (active)	1.77 µM (inactive)	–	3.3 µM (inactive)	2.25 µM (inactive)	3.72 µM (inactive)	3.6 µM (inactive)	3.17 µM (inactive)	2.71 µM (inactive)	3.39 µM (inactive)	–
Cc1cc(C)c2c(c1)CC1(Cc3c(C)cc(C)cc3C1=O)C2=O (configuration not stated)	> 100 µM (inactive)	> 100 µM (inactive)	> 100 µM (inactive)	> 100 µM (inactive)	> 100 µM (inactive)	> 100 µM (inactive)	> 100 µM (inactive)	> 100 µM (inactive)	> 100 µM (inactive)	–	> 100 µM (inactive)	> 100 µM (inactive)	> 100 µM (inactive)	98.6 µM (inactive)	> 100 µM (inactive)	> 100 µM (inactive)	> 100 µM (inactive)	> 100 µM (inactive)	–	–
